Test results published in US8822485B2, “Amino heteroaryl compounds as beta-secretase modulators and methods of use” (Amgen Inc., priority 2010, dated 2014).

How the values were obtained:
[1] = test system: Aβ40 in conditioned medium of cells stably expressing Amyloid Precursor Protein (APP) (HEK cell); assay: In vitro BACE cell-based assay (HEK cell assay, Aβ40 sandwich ELISA); settings: Homo sapiens, HEK293; IC50 range class; inhibition of Aβ40 after 24 h incubation
Procedure: In Vitro BACE Cell-Based Assay:
The cell-based assay measures inhibition or reduction of Aβ40 □ in conditioned medium of test compound treated cells expressing amyloid precursor protein.
Cells stably expressing Amyloid Precursor Protein (APP) were plated at a density of 40K cells/well in 96 well plates (Costar). The cells were cultivated for 24 hours at 37° C. and 5% CO2 in DMEM supplemented with 10% FBS. The test compounds were then added to cells in 10-point dose response concentrations with the starting concentration being either 100 μM or 10 μM. The compounds were diluted from stock solutions in DMSO and the final DMSO concentration of the test compounds on cells was 0.1%. After 24 h of incubation with the test compounds the supernatant conditioned media was collected and the Aβ 40 levels were determined using a sandwich ELISA. The IC50 of the compound was calculated from the percent of control or percent inhibition of Aβ40 as a function of the concentration of the test compound.
The sandwich ELISA to detect Aβ 40 was performed in 96 well microtiter plates, which were pre-treated with goat anti-rabbit IgG (Pierce). The capture and detecting antibody pair that were used to detect Aβ 40 from cell supernatants were affinity purified pAb40 (Biosource) and biotinylated 6E10 (Signet Labs Inc.), respectively. The optimal concentration for the pAb40 antibody was 3 μg/ml in Superblock/TBS (Pierce) that was supplemented with 0.05% Tween 20 (Sigma). Optimal concentration for the detection antibody 6E10-biotinylated was 0.5 μg/ml in Superblock/TBS (Pierce) that had been supplemented with 2% normal goat serum and 2% normal mouse serum.
Cellular supernatants were incubated with the capture antibody for 3 h at 4° C., followed by 3 wash steps in TBS-tween (0.05%). The detecting antibody incubation was for 2 h at 4° C., again followed by the wash steps as described previously. The final readout of the ELISA is Time-Resolved Fluorescence (counts per minute) using Delfia reagents Streptavidin-Europium and Enhancement solutions (Perkin Elmer) and the Victor 2 multilabel counter (Perkin Elmer).
Of the compounds tested, the cell based assay data for each of Examples 1-33, where available at the time of filing this application, is provided in Table 1.

BACE1 = BACE1 (Homo sapiens, UniProt P56817); assay: In vitro enzymatic BACE FRET assay; format: biochemical; settings: IC50 range class; 0.2 nM enzyme, 50 nM FRET substrate, pH 4.2
Procedure: In Vitro Enzymatic BACE FRET (Fluorescence Resonance Energy Transfer) Assay (Enzyme Assay Data in Table 1)
The assay buffer used in this screen is 0.05 M acetate, pH 4.2, 10% DMSO final, 100 uM genapol (which is a nonionic detergent, below its Critical Micelle Concentration). The Beta Secretase enzyme (0.2 nM) is pre-incubated for one hour with inhibitors, typically in about 1 uL of DMSO according to a serial dilution, are added thereto. The assay is effectively started by the addition of FRET substrate (50 nM) and the combination is incubated for one hour. The FRET assay is terminated with by addition of Tris buffer, which raises the pH to neutrality, and the fluorescence is determined. The FRET substrate is a peptide with commercially available fluorophore and quencher, on opposite sides of the BACE cleavage site. Proteolytic cleavage of the FRET substrate releases quenching of fluorescence (excitation […] and […]).
Of the compounds tested, the in-vitro BACE FRET enzyme data for each of Examples 1-33, where available at the time of filing this application, is provided in Table 1.

BACE1, sequence (P56817 46-501, species assumed): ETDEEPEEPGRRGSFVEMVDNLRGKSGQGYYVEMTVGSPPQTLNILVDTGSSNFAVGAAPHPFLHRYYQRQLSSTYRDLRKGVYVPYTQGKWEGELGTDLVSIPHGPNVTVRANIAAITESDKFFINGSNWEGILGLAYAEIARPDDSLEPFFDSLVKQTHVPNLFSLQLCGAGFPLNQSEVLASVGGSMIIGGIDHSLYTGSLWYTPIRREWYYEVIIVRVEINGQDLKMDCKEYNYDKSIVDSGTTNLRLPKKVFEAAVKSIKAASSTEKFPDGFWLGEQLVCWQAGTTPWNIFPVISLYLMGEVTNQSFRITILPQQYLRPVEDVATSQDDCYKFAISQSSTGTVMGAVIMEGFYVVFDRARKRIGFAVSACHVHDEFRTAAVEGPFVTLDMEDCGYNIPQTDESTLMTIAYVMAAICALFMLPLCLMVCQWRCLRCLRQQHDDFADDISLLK

IC50 (BACE1): < 100 nM
Compound: Cc1cccc(C(=O)N2CCCC2)c1-c1ccc2nc(N)c(CCc3cncnc3)cc2c1 [Example 33, (2-(2-amino-3-(2-(pyrimidin-5-yl)ethyl)quinolin-6-yl)-3-methylphenyl)(pyrrolidin-1-yl)methanone]
IC50 [1]: < 500 nM
